Source: EP2607478A1, “Phenanthroline treated MSC” (Universiteit Twente, priority 2011, dated 2013)
“Also recorded” adds a separate entry of the source.

Tested on: MSCs
Assay: Whole genome expression analysis (Illumina microarray) of treated MSCs
Assay type: cell-based, Human
Protocol: MSCs were seeded in T25 flasks at 5000 cells/cm^2 and allowed to attach overnight in proliferation medium. […] After 48 hours, RNA was isolated as described above. From 500 ng of RNA, cRNA was synthesized using the Illumina TotalPrep RNA amplification Kit (Ambion), according to the manufacturer's protocol and the quality of RNA and cRNA was verified on a Bioanalyzer 2100 (Agilent). Microarrays were performed using Illumina HT-12 v4 expression Beadchips, according to the manufacturer's protocol. Briefly, 750 ng of cRNA was hybridized on the array overnight after which the array was washed and blocked. Then, by addition of streptavidin Cy-3 a fluorescent signal was developed. Arrays were scanned on an Illumina iScan reader and raw intensity values were background corrected in GenomeStudio (Illumina). Further data processing and statistical testing were performed with R and Bioconductor statistical software (www.bioconductor.org), using package lumi. Raw intensity values were transformed using variance stabilization and a quantile normalization was performed. A linear modelling approach with empirical Bayesian methods, as implemented in Limma package (54), was applied for differential expression analysis of the resulting probe-level expression values. A gene list, containing only those genes with an absolute 1.5-fold change between different treatments, was uploaded to Ingenuity Pathway Analysis (IPA) software and used for core analysis. Pathways or networks with a p-value of 0.05 were considered statistically significant.

## c1cnc2c(c1)ccc1cccnc12 [PHE, 1, 10-phenanthroline]
MSCs treated for two days, 150 µM DFO or 200 µM PHE
  interleukin-8 (Il-8) gene expression: highly induced
MSCs treated for two days, 150 µM DFO or 200 µM PHE, relative to basic medium
  expression of HRE-containing genes (metabolism, cell growth and survival, endothelial genes): most genes were strongest induced; also recorded: markedly induced higher expression
PHE compared to hypoxia or DFO-treated cells
  expression of RelA: higher
PHE-treated cells
  expression of P300: higher expression
ProbeID ILMN 2045419
  logFC(D142_PHE - D142_BAS) BNIP3L: 2,33
ProbeID ILMN 3188106
  logFC(D142_PHE - D142_BAS) CYTH2: 2,19
ProbeID ILMN_1651496
  logFC(D142_PHE - D142_BAS) HIST1H2BD: 3,85
ProbeID ILMN_1651958
  logFC(D142_PHE - D142_BAS) MGP: -2,09
ProbeID ILMN_1653292
  logFC(D142_PHE - D142_BAS) PFKFB4: 4,21
ProbeID ILMN_1653466
  logFC(D142_PHE - D142_BAS) HES4: 2,11
ProbeID ILMN_1655796
  logFC(D142_PHE - D142_BAS): 2,37
ProbeID ILMN_1655930
  logFC(D142_PHE - D142_BAS) ELL2: 2,00
ProbeID ILMN_1656057, PHE vs BAS
  logFC(D142_PHE - D142_BAS) PLAU: -3,95
ProbeID ILMN_1656501
  logFC(D142_PHE - D142_BAS) DUSP5: 3,07
ProbeID ILMN_1657683, PHE vs BAS
  logFC(D142_PHE - D142_BAS) C1orf198: -2,35
ProbeID ILMN_1657796
  logFC(D142_PHE - D142_BAS) STMN1: -2,32
ProbeID ILMN_1657962
  logFC(D142_PHE - D142_BAS) LOC728946: -2,02
ProbeID ILMN_1659027
  logFC(D142_PHE - D142_BAS) SLC2A1: 4,08
ProbeID ILMN_1659047
  logFC(D142_PHE - D142_BAS) HIST2H2AA3: 3,78
ProbeID ILMN_1659936
  logFC(D142_PHE - D142_BAS) PPP1R15A: 2,65
ProbeID ILMN_1659990
  logFC(D142_PHE - D142_BAS) C7orf68: 3,65
ProbeID ILMN_1660654
  logFC(D142_PHE - D142_BAS) CDCA2: 2,66
ProbeID ILMN_1660847
  logFC(D142_PHE - D142_BAS) PFKFB3: 3,69
ProbeID ILMN_1661346
  logFC(D142_PHE - D142_BAS) LOC648210: -2,02
ProbeID ILMN_1661599
  logFC(D142_PHE - D142_BAS) DDIT4: 4,48
ProbeID ILMN_1662619
  logFC(D142_PHE - D142_BAS) TFPI: 2,06
ProbeID ILMN_1663390, PHE vs BAS
  logFC(D142_PHE - D142_BAS) CDC20: -2,55
ProbeID ILMN_1663575, PHE vs BAS
  logFC(D142_PHE - D142_BAS) MGC87042: -2,77
ProbeID ILMN_1664855
  logFC(D142_PHE - D142_BAS) PPP1R14C: 2,96
ProbeID ILMN_1665510
  logFC(D142_PHE - D142_BAS) ERRFI1: 3,36
ProbeID ILMN_1666022
  logFC(D142_PHE - D142_BAS) TNFRSF10D: 3,48
ProbeID ILMN_1666305, PHE vs BAS
  logFC(D142_PHE - D142_BAS) CDKN3: -2,37
ProbeID ILMN_1666545
  logFC(D142_PHE - D142_BAS) GCNT1: -2,01
ProbeID ILMN_1666733
  logFC(D142_PHE - D142_BAS) IL8: 5,35
ProbeID ILMN_1667692
  logFC(D142_PHE - D142_BAS) PTGIS: -2,11
ProbeID ILMN_1667791
  logFC(D142_PHE - D142_BAS) PPFIA4: 2,71
ProbeID ILMN_1667893, PHE vs BAS
  logFC(D142_PHE - D142_BAS) TNS3: -2,61
ProbeID ILMN_1668345
  logFC(D142_PHE - D142_BAS) OAF: -2,06
ProbeID ILMN_1668861
  logFC(D142_PHE - D142_BAS) LOC732165: 2,33
ProbeID ILMN_1669119, PHE vs BAS
  logFC(D142_PHE - D142_BAS) LOC728946: -2,56
ProbeID ILMN_1669584
  logFC(D142_PHE - D142_BAS) ILF3: -2,03
ProbeID ILMN_1671478
  logFC(D142_PHE - D142_BAS) CKB: 2,73
ProbeID ILMN_1671703, PHE vs BAS
  logFC(D142_PHE - D142_BAS) ACTA2: -3,04
ProbeID ILMN_1671731
  logFC(D142_PHE - D142_BAS) AVPI1: 2,16
ProbeID ILMN_1672350
  logFC(D142_PHE - D142_BAS) JAM2: 2,37
ProbeID ILMN_1673521
  logFC(D142_PHE - D142_BAS) KISS1R: 3,05
ProbeID ILMN_1674243
  logFC(D142_PHE - D142_BAS) TFRC: 2,40
ProbeID ILMN_1674376
  logFC(D142_PHE - D142_BAS) ANGPTL4: 2,49
ProbeID ILMN_1675062
  logFC(D142_PHE - D142_BAS) MYL9: -2,11
ProbeID ILMN_1675947
  logFC(D142_PHE - D142_BAS) MT3: 4,91
ProbeID ILMN_1676088, PHE vs BAS
  logFC(D142_PHE - D142_BAS) MSRB3: -2,43
ProbeID ILMN_1676629
  logFC(D142_PHE - D142_BAS) INSIG2: 2,16
ProbeID ILMN_1676663, PHE vs BAS
  logFC(D142_PHE - D142_BAS) TNFRSF11B: -3,04
ProbeID ILMN_1676899
  logFC(D142_PHE - D142_BAS) YEATS2: 2,21
ProbeID ILMN_1677511
  logFC(D142_PHE - D142_BAS) PTGS2: 2,13
ProbeID ILMN_1678493, PHE vs BAS
  logFC(D142_PHE - D142_BAS) CHN1: -2,73
ProbeID ILMN_1678842
  logFC(D142_PHE - D142_BAS) THBS2: -2,24
ProbeID ILMN_1679041
  logFC(D142_PHE - D142_BAS) SLC3A2: 2,15
ProbeID ILMN_1679727
  logFC(D142_PHE - D142_BAS) CLK1: 2,72
ProbeID ILMN_1680139
  logFC(D142_PHE - D142_BAS) MAFF: 3,87
ProbeID ILMN_1680738, PHE vs BAS
  logFC(D142_PHE - D142_BAS) C5orf13: -2,41
ProbeID ILMN_1682599
  logFC(D142_PHE - D142_BAS) GPRC5A: 4,51
ProbeID ILMN_1682717
  logFC(D142_PHE - D142_BAS) IER3: 2,62
ProbeID ILMN_1683179
  logFC(D142_PHE - D142_BAS) RRAD: 2,75
ProbeID ILMN_1684114
  logFC(D142_PHE - D142_BAS) LOC286016: 2,09
ProbeID ILMN_1684158
  logFC(D142_PHE - D142_BAS) GPT2: 2,19
ProbeID ILMN_1684554
  logFC(D142_PHE - D142_BAS) COL16A1: -2,06
ProbeID ILMN_1685441, PHE vs BAS
  logFC(D142_PHE - D142_BAS) ASAP3: -2,35
ProbeID ILMN_1685714
  logFC(D142_PHE - D142_BAS) INHBB: 3,60
ProbeID ILMN_1686097, PHE vs BAS
  logFC(D142_PHE - D142_BAS) TOP2A: -3,07
ProbeID ILMN_1686116, PHE vs BAS
  logFC(D142_PHE - D142_BAS) THBS1: -3,00
ProbeID ILMN_1687301, PHE vs BAS
  logFC(D142_PHE - D142_BAS) VCAN: -2,38
ProbeID ILMN_1687751
  logFC(D142_PHE - D142_BAS) BAALC: -2,07
ProbeID ILMN_1689088, PHE vs BAS
  logFC(D142_PHE - D142_BAS) COLEC12: -3,75
ProbeID ILMN_1689111, PHE vs BAS
  logFC(D142_PHE - D142_BAS) CXCL12: -3,44
ProbeID ILMN_1689274
  logFC(D142_PHE - D142_BAS) NIPA1: 2,08
ProbeID ILMN_1690105
  logFC(D142_PHE - D142_BAS) STAT1: -2,04
ProbeID ILMN_1690125, PHE vs BAS
  logFC(D142_PHE - D142_BAS) PDLIM7: -2,57
ProbeID ILMN_1690921
  logFC(D142_PHE - D142_BAS) STAT2: -2,24
ProbeID ILMN_1691364, PHE vs BAS
  logFC(D142_PHE - D142_BAS) STAT1: -2,77
ProbeID ILMN_1691476, PHE vs BAS
  logFC(D142_PHE - D142_BAS) MYLK: -3,27
ProbeID ILMN_1691884
  logFC(D142_PHE - D142_BAS) STC2: 3,81
ProbeID ILMN_1692785
  logFC(D142_PHE - D142_BAS) KLHL21: 2,54
ProbeID ILMN_1692938
  logFC(D142_PHE - D142_BAS) PSAT1: 2,74
ProbeID ILMN_1693334
  logFC(D142_PHE - D142_BAS) P4HA1: 3,46
ProbeID ILMN_1694240
  logFC(D142_PHE - D142_BAS) MAP2K1: 2,11
ProbeID ILMN_1694810
  logFC(D142_PHE - D142_BAS) PANX2: 2,42
ProbeID ILMN_1695658, PHE vs BAS
  logFC(D142_PHE - D142_BAS) KIF20A: -3,25
ProbeID ILMN_1696537
  logFC(D142_PHE - D142_BAS) DDIT4L: -2,12
ProbeID ILMN_1696601
  logFC(D142_PHE - D142_BAS) VARS: -2,08
ProbeID ILMN_1699265
  logFC(D142_PHE - D142_BAS) TNFRSF10B: 2,54
ProbeID ILMN_1699644
  logFC(D142_PHE - D142_BAS): 2,20
